# From US20260193254A1, “2-OXOQUINAZOLINE CRYSTALLINE FORMS” (IDEAYA Biosciences, Inc., priority 2022, published 2026)
# What was measured:
# Format in all cases: physicochemical
# [1] = Variable humidity and temperature XRPD experiments; details: for temperature above which the form starts to lose water: based on DSC results; for dehydration product (form obtained on loss of water): low humidity or heating above the dehydration temperature
# Experimental: Based on DVS and DSC results of Form C, Form C starts to loss water when humidity is below 30% or when temperature is higher than about 44° C. […] In order to determine identity of potential form changes after the dehydration and upon the solid-solid transition, variable humidity and variable temperature XRPD techniques were applied. XRPD patterns of the sample were measured online under 25° C./ambient environment (initial)-120° C./N2 protection-25° C./ambient environment-25° C./80% RH (40 min)-25° C./0% RH (15 h), and 25° C./ambient environment (initial)-250° C./N2 protection-25° C./ambient environment. […] Form L coverts back to Form C after exposure to 25° C./80% RH for 40 min.
# Based on DVS and DSC results of Form D, Form D starts to loss water when humidity is below 10% or when temperature is higher than 46° C. In order to determine identity of the dehydration product, variable humidity and variable temperature XRPD techniques were applied. XRPD patterns of the sample were measured online with a temperature cycle of 25° C./ambient environment (initial)-130° C./N2 protection (10 min)-25° C./N2 protection-25° C./ambient environment (3h) and two water sorption and desorption cycles of 50% RH (initial)-90% RH (3h)-60% RH (2h)-40% RH (2h)-20% RH (3h)-10% RH (3h)-0% RH (6h)-10% RH (3h)-20% RH (3h)-50% RH at 25° C. […] (higher than dehydration temperature). Form S converts back to Form D after exposure to ambient condition for 3 h.
# In order to investigate potential form change of Form A upon heating, variable temperature XRPD technique was applied. XRPD patterns of the sample were measured online with a temperature cycle of 25° C. (initial)-50° C./N2 protection-70° C./N2 protection-250° C./N2 protection-25° C./N2 protection-25° C./ambient condition (3h). […] Form A converts to Form U when temperature is 250° C., and Form U converts to Form T after cooling to 25° C.
# [2] = Variable humidity and temperature XRPD experiments
# [3] = Grinding simulation experiments - dry grinding
# Experimental: About 20 mg of Form A, Form D, and Form T were ground manually with a mortar and a pestle for 5 min or 1 min. Potential from transition and degree of crystallinity were evaluated by XRPD.
# [4] = Bulk stability of crystalline forms; details: for Purity, Bulk (HPLC): Solid state
# Description: (§1) Solids obtained after bulk stability study were characterized by XRPD and HPLC.
# [5] = Equilibrium solubility in FeSSIF and FaSSIF; details: for XRPD of solid after solubility test / final pH / Solubility / impurity in solubility sample: 24 hours; for Solubility / solubility at 24 h: target concentration 1 mg/mL, HPLC method 1 or 2 (footnote); for impurity in solubility sample: no unit printed for impurity (column head mg/mL); for solubility at 24 h: 37 °C, thermodynamic from solid
# Experimental: (§2) Solid part and liquid part were separated by filtration. Solubility was measured by HPLC. Solid part (wet cake) was investigated by XRPD.
# [6] = Grinding simulation experiments - wet grinding (granulation)
# Experimental: Water or ethanol was added drop wise to about 20 mg of Form A, Form D, or Form T until solid was wetted sufficiently. Vortex was applied between each addition. Samples were dried under ambient condition for 10 min. Potential form transition and degree of crystallinity were evaluated by XRPD.
# [7] = Hygroscopicity: water sorption and desorption by dynamic vapor sorption (DVS); details: for humidity at which water is absorbed again / water content restored (conversion back to the hydrate): DVS and variable humidity XRPD; for form change after the DVS test: XRPD after DVS
# Experimental: In some embodiments, the crystalline form described herein is further characterized by is further characterized by a dynamic vapor sorption (DVS) profile. In some embodiments, a DVS is recorded according to the method as described herein with a cycle of 40-0-95-0-40% RH at 25° C.
# Water sorption and desorption behaviors of Form A, Form C, Form D, and Form T were investigated by DVS at 25° C. with a cycle of 40-0-95-0-40% RH. Dm/dt was 0.002. Minimum equilibration time was 60 min. Maximum equilibration time was 360 min. XRPD was measured after DVS test to determine potential form change.
# [8] = Bulk stability of crystalline forms; parameters: key: Color A: All No change of color; details: Solid state
# Description: as §1
# [9] = Equilibrium solubility in SGF (pH 2.0), 0.1 N HCl (pH 1.2) and phosphate buffer (pH 8.0); details: solid from solubility study with Form A in 0.1 N HCl solution
# Experimental: as §2
# [10] = 25° C./92% RH, open container, 1 week
# [11] = 25° C./92% RH, open container, 2 weeks
# [12] = 40° C./75% RH, open container, 1 week
# [13] = 40° C./75% RH, open container, 2 weeks
# [14] = 60° C., tight container, 1 week
# [15] = 60° C., tight container, 2 weeks
structure (smiles),measurement,setting,value
"Nc1nc(=O)n(-c2ccccc2Cl)c2nc(C(F)(F)F)ccc12 [Form U, 4-Amino-1-(2-chlorophenyl)-7-(trifluoromethyl)pyrido[2,3-d]pyrimidin-2(1H)-one]",form after cooling to 25° C.,[1]; after heating to 250° C.,Form T
"Nc1nc(=O)n(-c2ccccc2Cl)c2nc(C(F)(F)F)ccc12 [Form D, 4-Amino-1-(2-chlorophenyl)-7-(trifluoromethyl)pyrido[2,3-d]pyrimidin-2(1H)-one]",XRPD (XRPD method 2),[2]; VRH1 21° C./50% RH (initial),Form D
same,XRPD (XRPD method 2),[2]; VRH2 21° C./90% RH (3 h),Form D
same,XRPD (XRPD method 2),[2]; VRH3 21° C./60% RH (2 h),Form D
same,XRPD (XRPD method 2),[2]; VRH4 21° C./40% RH (2 h),Form D
same,XRPD (XRPD method 2),"[2]; VRH5 21° C./20% RH (3 h), desorption",Form D
same,XRPD (XRPD method 2),"[2]; VRH6 21° C./10% RH (3 h), desorption",Form S
same,XRPD (XRPD method 2),[2]; VRH7 21° C./0% RH (6 h),Form S
same,XRPD (XRPD method 2),"[2]; VRH8 21° C./10% RH (3 h), after 0% RH",Form S
same,XRPD (XRPD method 2),"[2]; VRH9 21° C./20% RH (3 h), after 0% RH",Form S
same,XRPD (XRPD method 2),[2]; VRH10 21° C./50% RH (final),Form D
same,XRPD (XRPD method 2),[2]; VT9 25° C./55% RH (initial),Form D
same,XRPD (XRPD method 2),[2]; VT10 130° C./55% RH (10 min),Form S
same,XRPD (XRPD method 2),[2]; VT11 25° C./N2 protection (10 min),Form S
same,XRPD (XRPD method 2),[2]; VT12 25° C./55% RH (3 h),Form D
same,XRPD after dry grinding,[3]; Dry grinding for 1 min,substantially amorphous
same,XRPD after dry grinding,[3]; Dry grinding for 5 min,substantially amorphous
same,tolerance to dry grinding,"[3]; ground manually with mortar and pestle, 5 min or 1 min, XRPD",poor tolerance
same,"Purity, Bulk (HPLC)",[4]; [10],98.0%
same,"Purity, Bulk (HPLC)",[4]; [11],98.0%
same,"Purity, Bulk (HPLC)",[4]; [12],98.1%
same,"Purity, Bulk (HPLC)",[4]; [13],98.2%
same,"Purity, Bulk (HPLC)",[4]; [14],98.1%
same,"Purity, Bulk (HPLC)",[4]; [15],97.8%
same,Initial purity,"[4]; before stress, HPLC",98.0%
same,chemical stability and physical stability (bulk stability),"[4]; stressed under 25° C./92 RH, 40% C/75% RH and 60° C., XRPD and HPLC",good chemical stability and physical stability
same,XRPD of solid after solubility test,"[5]; FaSSIF, pH 6.5, 37° C.",Form D
same,final pH,"[5]; FaSSIF, pH 6.5, 37° C.",6.6
same,Solubility,"[5]; FaSSIF, pH 6.5, 37° C.",90 µg/mL
same,impurity in solubility sample,"[5]; FaSSIF, pH 6.5, 37° C.",no impurity
same,XRPD of solid after solubility test,"[5]; FeSSIF, pH 5.0, 37° C.",Form D
same,final pH,"[5]; FeSSIF, pH 5.0, 37° C.",5.2
same,Solubility,"[5]; FeSSIF, pH 5.0, 37° C.",210 µg/mL
same,impurity in solubility sample,"[5]; FeSSIF, pH 5.0, 37° C.",no impurity
same,XRPD after wet grinding,[6]; Ethanol,substantially amorphous
same,XRPD after wet grinding,[6]; Water,No form change
same,form change after granulation with water,"[6]; wet grinding, XRPD",no form change
same,tolerance to granulation with ethanol or water,"[6]; wet grinding, XRPD",poor tolerance
same,tolerance to granulation with water,"[6]; wet grinding, XRPD",good tolerance
same,humidity at which water is absorbed again / water content restored (conversion back to the hydrate),[7]; 25° C.,higher than 20 % RH
same,hygroscopicity,"[7]; DVS at 25° C., cycle 40-0-95-0-40% RH",slightly hygroscopic
same,water uptake,"[7]; DVS, from 40% to 95% RH, 25° C.",about 0.9%
same,form change after the DVS test,[7],No form change
same,Color,[8]; [10],A
same,Color,[8]; [11],A
same,Color,[8]; [12],A
same,Color,[8]; [13],A
same,Color,[8]; [14],A
same,Color,[8]; [15],A
same,XRPD (XRPD method 2),[1]; VT13 25° C./55% RH (final),Form D
same,temperature above which the form starts to lose water,[1],higher than 46 °C
same,dehydration product (form obtained on loss of water),[1],Form S
"Nc1nc(=O)n(-c2ccccc2Cl)c2nc(C(F)(F)F)ccc12 [Form L, 4-Amino-1-(2-chlorophenyl)-7-(trifluoromethyl)pyrido[2,3-d]pyrimidin-2(1H)-one]",humidity at which water is absorbed again / water content restored (conversion back to the hydrate),[7]; 25° C.,≥ 80 % RH
same,form after exposure to 25° C./80% RH for 40 min,[1]; variable humidity XRPD,Form C
same,form obtained on heating to 250° C.,"[1]; variable temperature XRPD, N2 protection",solid state Form V
"Nc1nc(=O)n(-c2ccccc2Cl)c2nc(C(F)(F)F)ccc12 [Form S, 4-Amino-1-(2-chlorophenyl)-7-(trifluoromethyl)pyrido[2,3-d]pyrimidin-2(1H)-one]",humidity at which water is absorbed again / water content restored (conversion back to the hydrate),[7]; 25° C.,higher than 20 % RH
same,form after exposure to ambient condition for 3 h,"[1]; XRPD, 25° C.",Form D
"Nc1nc(=O)n(-c2ccccc2Cl)c2nc(C(F)(F)F)ccc12 [Form R, 4-Amino-1-(2-chlorophenyl)-7-(trifluoromethyl)pyrido[2,3-d]pyrimidin-2(1H)-one]",impurity from HPLC result,[9],about 68.5%
"Nc1nc(=O)n(-c2ccccc2Cl)c2nc(C(F)(F)F)ccc12 [Form C, 4-Amino-1-(2-chlorophenyl)-7-(trifluoromethyl)pyrido[2,3-d]pyrimidin-2(1H)-one]",XRPD (XRPD method 2),[2]; VT1 25° C./60% RH (initial),Form C
same,XRPD (XRPD method 2),[2]; VT7 250° C./60% RH (10 min),Solid state Form V
same,XRPD (XRPD method 2),[2]; VT8 25° C./60% RH (final),Solid state Form V
same,XRPD of solid after solubility test,"[5]; FaSSIF, pH 6.5, 37° C.",Form C
same,final pH,"[5]; FaSSIF, pH 6.5, 37° C.",6.6
same,Solubility,"[5]; FaSSIF, pH 6.5, 37° C.",60 µg/mL
same,impurity in solubility sample,"[5]; FaSSIF, pH 6.5, 37° C.",no impurity
same,XRPD of solid after solubility test,"[5]; FeSSIF, pH 5.0, 37° C.",Form C
same,final pH,"[5]; FeSSIF, pH 5.0, 37° C.",5.2
same,Solubility,"[5]; FeSSIF, pH 5.0, 37° C.",170 µg/mL
same,impurity in solubility sample,"[5]; FeSSIF, pH 5.0, 37° C.",no impurity
same,humidity below which the form starts to lose water,[7]; 25° C.,below 30 % RH
same,form change after the DVS test,[7],A mixture of Form L and Form C was obtained
same,XRPD (XRPD method 2),[1]; VT2 120° C./60% RH (10 min),Form L
same,XRPD (XRPD method 2),[1]; VT4 25° C./80% RH (40 min),Form C
same,XRPD (XRPD method 2),[1]; VT6 25° C./60% RH (initial),Form C
same,temperature above which the form starts to lose water,[1],higher than 44 °C
same,dehydration product (form obtained on loss of water),[1],Form L
"Nc1nc(=O)n(-c2ccccc2Cl)c2nc(C(F)(F)F)ccc12 [Form F, 4-Amino-1-(2-chlorophenyl)-7-(trifluoromethyl)pyrido[2,3-d]pyrimidin-2(1H)-one]",XRPD of solid after solubility test,"[5]; FaSSIF, pH 6.5, 37° C.",Form F
same,final pH,"[5]; FaSSIF, pH 6.5, 37° C.",6.6
same,XRPD of solid after solubility test,"[5]; FeSSIF, pH 5.0, 37° C.",Form F
same,final pH,"[5]; FeSSIF, pH 5.0, 37° C.",5.0
same,Solubility,"[5]; FeSSIF, pH 5.0, 37° C.",240 µg/mL
"Nc1nc(=O)n(-c2ccccc2Cl)c2nc(C(F)(F)F)ccc12 [Form E, 4-Amino-1-(2-chlorophenyl)-7-(trifluoromethyl)pyrido[2,3-d]pyrimidin-2(1H)-one]",solubility at 24 h,"[5]; pH 5, fessif, FeSSIF, pH 5.0, 37° C.",140 µg/mL
same,solubility at 24 h,"[5]; pH 6.5, fassif, FaSSIF, pH 6.5, 37° C.",60 µg/mL
same,XRPD of solid after solubility test,"[5]; FaSSIF, pH 6.5, 37° C.",Form E
same,final pH,"[5]; FaSSIF, pH 6.5, 37° C.",6.6
same,XRPD of solid after solubility test,"[5]; FeSSIF, pH 5.0, 37° C.",Form E
same,final pH,"[5]; FeSSIF, pH 5.0, 37° C.",5.2
